Consider two molecules from paper PMC11864180, “Dimeric assembly of F1-like ATPase for the gliding motility of Mycoplasma” (Science Advances, 2025).

This assay concerns the target T1, G1-ATPase (dimeric F1-like ATPase, twin motor; type 2 ATPase) ([Mycoplasma] mobile, UniProt Q6KIC3+Q6KIC4).
T1 construct: gene atpA; native twin motor isolated from M. mobile cells; two alpha3beta3gamma units with GliD, GliE and PGK; PGK CTD only partly modelled; strain mutation lies in gli521, outside the complex; with F1-like ATPase gamma subunit (G1-gamma); GliD (bridge subunit of G1-ATPase); GliE (G1-ATPase subunit, 112 amino acids); Phosphoglycerate kinase
Put plainly: cryo-EM structure of the complex ([…] Å; local […] Å). Type of assay: binding. To be noted: Mg2+, endogenous nucleotide, isolated without added nucleotide, PBS pH 7.3, 1 mM MgCl2.

As for `Nc1ncnc2c1ncn2[C@@H]1O[C@H](COP(=O)(O)OP(=O)(O)O)[C@@H](O)[C@H]1O` [Mg-ADP], the “cryo-EM structure of the complex (3.2 Å; local 3.1 Å)” value (catalytic site of alphaHO-betaHO, together with Pi) is “αCβC and αHOβHO contained Mg-ATP and Mg-ADP + Pi, respectively”.
With `Nc1ncnc2c1ncn2[C@@H]1O[C@H](COP(=O)(O)OP(=O)(O)OP(=O)(O)O)[C@@H](O)[C@H]1O` [Mg-ATP], the “cryo-EM structure of the complex (3.2 Å; local 3.1 Å)” value (catalytic site of alphaC-betaC and the three noncatalytic beta-alpha interfaces) was “Mg-ATP was observed at the remaining three interfaces, hereafter referred to as the β-α interfaces”.
